For 53 compounds, Ki results are on record in US6727264B1 (Synaptic Pharmaceutical Corporation, priority 2001, dated 2004).

Chain of rat MCH-1 (P97639 whole entry): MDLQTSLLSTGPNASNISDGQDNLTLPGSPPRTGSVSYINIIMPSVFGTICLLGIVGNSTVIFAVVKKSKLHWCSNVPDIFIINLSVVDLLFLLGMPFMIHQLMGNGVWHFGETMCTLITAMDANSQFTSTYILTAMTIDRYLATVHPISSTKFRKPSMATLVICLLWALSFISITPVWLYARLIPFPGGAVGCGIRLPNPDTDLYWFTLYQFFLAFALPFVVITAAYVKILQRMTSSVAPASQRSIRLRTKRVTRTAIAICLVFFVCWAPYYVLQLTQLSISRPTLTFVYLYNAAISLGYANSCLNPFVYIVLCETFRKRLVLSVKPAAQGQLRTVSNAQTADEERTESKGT

The assay addresses rat MCH-1 (Rattus norvegicus, UniProt P97639). Description: Radioligand binding assay at cloned rat MCH1 receptor ([3H] Compound A). Set-up: host or cells: Peak rapid 293 (Peakr293) cells, transient calcium phosphate transfection, membranes. To be noted: cloned rat MCH1 receptor, membranes from Peakr293 cells, 0.08 nM [3H] Compound A; read-out: Ki (nM) rMCH1.
Regarding `CC(C)C(=O)Nc1cccc(C2CCN(Cc3ccc4c(c3)OCCCO4)CC2)c1` [Example 234], the Ki (in general, the dissociation constant of the complex between target and ligand, obtained from inhibition or displacement) is 116 nM.
Regarding `CC(C)C(=O)Nc1cccc(C2CCN(Cc3c[nH]nc3-c3cccs3)CC2)c1` [Example 235], the Ki was 412 nM.
The value for `CC(C)C(=O)Nc1cccc(C2CCN(Cc3ccc(-c4cccs4)s3)CC2)c1` [Example 236] was 97.7 nM.
As to `CC(C)C(=O)Nc1cccc(C2CCN(Cc3ccc(-c4cc(C(F)(F)F)n(C)n4)s3)CC2)c1` [Example 238], the Ki worked out at 65.9 nM.
As to `CC(C)C(=O)Nc1cccc(C2CCN(Cc3cc4ccccc4s3)CC2)c1` [Example 253], the Ki came out at 362 nM.
Take `CC(C)C(=O)Nc1cccc(C2CCN(Cc3ccc(-c4cccc(OC(F)(F)F)c4)o3)CC2)c1` [Example 254]: the inhibition constant (Ki) stood at 401 nM.
The value for `CC(C)C(=O)Nc1cccc(C2CCN(Cc3ccc4ccccc4n3)CC2)c1` [Example 255] was 590 nM; that for `CC(C)C(=O)Nc1cccc(C2CCN(Cc3ccc(-n4ccnc4)cc3)CC2)c1` [Example 256] was 321 nM; that for `CC(C)C(=O)Nc1cccc(C2CCN(Cc3ccc4c(c3)Cc3ccccc3-4)CC2)c1` [Example 257] was 37.2 nM.
Take `CC(C)C(=O)Nc1cccc(C2CCN(Cc3ccc(Oc4ccccc4)cc3)CC2)c1` [Example 259]: the Ki stood at 15.4 nM.
On to `CC(C)C(=O)Nc1cccc(C2CCN(Cc3ccc(-c4ccccc4)cc3)CC2)c1` [Example 260], for which the Ki is 77.7 nM.
Turning to `CCCCN(CCCC)c1ccc(CN2CCC(c3cccc(NC(=O)C(C)C)c3)CC2)cc1` [Example 261], the Ki was 6.5 nM.
For `Cc1ccc(Sc2ccc(CN3CCC(c4cccc(NC(=O)C(C)C)c4)CC3)cc2[N+](=O)[O-])cc1` [Example 262], the Ki was found to be 64.1 nM.
Regarding `CC(C)C(=O)Nc1cccc(C2CCN(Cc3ccc(-c4csnn4)cc3)CC2)c1` [Example 263], the Ki was 156 nM.
Regarding `Cc1ccc(C(=O)CCCN2CCC(c3cccc(NC(=O)C(C)C)n3)CC2)cc1C` [Example 264], the Ki turned out to be 54.7 nM.
As to `CC(C)C(=O)Nc1cccc(C2CCN(CCCC(c3ccc(F)cc3)c3ccc(F)cc3)CC2)n1` [Example 265], the inhibition constant (Ki) turned out to be 13.5 nM.
On to `CC(C)C(=O)Nc1cccc(C2CCN(Cc3ccc(Oc4ccc(F)c(F)c4)cc3)CC2)n1` [Example 266], for which the Ki stood at 6.4 nM.
The same measure for `CCn1c2ccccc2c2cc(CN3CCC(c4ccc(C)c(NC(=O)C(C)C)c4)CC3)ccc21` [Example 268]: 20.3 nM; for `Cc1ccc(C2CCN(Cc3ccc(Oc4ccc(F)c(F)c4)cc3)CC2)cc1NC(=O)C(C)C` [Example 269]: 27.4 nM; for `CCn1c2ccccc2c2cc(CN3CCC(c4cc(NC(=O)C(C)C)ccc4C)CC3)ccc21` [Example 270]: 3.4 nM.
The same measure for `Cc1ccc(C2CCN(CCCC(c3ccc(F)cc3)c3ccc(F)cc3)CC2)cc1NC(=O)C(C)C` [Example 271]: 40.1 nM.
In the case of `CC(=O)c1cccc(O[C@@H](CCN2CCC(c3ccc(C)c(NC(=O)C(C)C)c3)CC2)c2ccccc2)c1` [Example 273], the inhibition constant Ki was 196 nM.
As for `CCn1c2ccccc2c2cc(CN3CCC(c4ccccc4NC(=O)C(C)C)CC3)ccc21` [Example 274], the Ki was found to be 844 nM.
Regarding `Cc1ccc(NC(=O)C(C)C)cc1C1CCN(CCCC(c2ccc(F)cc2)c2ccc(F)cc2)CC1` [Example 275], the Ki is 3.1 nM.
The same measure for `CC(C)C(=O)Nc1ccccc1C1CCN(CCCC(c2ccc(F)cc2)c2ccc(F)cc2)CC1` [Example 276]: 734 nM; for `CC(C)C(=O)Nc1ccc(OC(F)(F)F)cc1C1CCN(CCCC(c2ccc(F)cc2)c2ccc(F)cc2)CC1` [Example 277]: 118 nM.
As for `O=C(Nc1cccc(C2CCN(CC[C@@H](O)c3ccccc3)CC2)c1)C1CC1` [Example 278], the Ki is 85.8 nM.
As for `CC(C)C(=O)Nc1cccc(C2CCN(CCCC(O)c3ccccc3)CC2)c1` (centres unmarked) [Example 279], the Ki is 74.5 nM.
As to `CC(C)C(=O)Nc1cccc(C2CCN(CCCCC(O)c3ccccc3)CC2)c1` (centres unmarked) [Example 280], the Ki came out at 27.6 nM.
For the compound `CC(C)C(=O)Nc1cccc(C2CCN(CCCCCC(O)c3ccccc3)CC2)c1` (centres unmarked) [Example 281], the Ki was 7.9 nM.
In the case of `CC(C)C(=O)Nc1cccc(C2CCN(CCCCCCC(O)c3ccccc3)CC2)c1` (centres unmarked) [Example 282], the Ki amounted to 23.5 nM.
On to `Cc1onc(-c2c(Cl)cccc2Cl)c1C(=O)OC(CCCN1CCC(c2cccc(NC(=O)C(C)C)c2)CC1)c1ccccc1` (centres unmarked) [Example 284, 4-{4-[3-(ISOBUTYRYLAMINO)PHENYL]-1-PIPERIDINYL}-1-PHENYLBUTYL 3-(2,6-DICHLOROPHENYL)-5-METHYL-4-ISOXAZOLECARBOXYLATE], for which the Ki was 16.3 nM.
In the case of `CC(C)C(=O)Nc1cccc(C2CCN(CCCC(OC(=O)Cc3ccc(F)cc3)c3ccccc3)CC2)c1` (centres unmarked) [Example 285], the Ki was found to be 10.3 nM.
The same measure for `CC(C)C(=O)Nc1cccc(C2CCN(CCCOC(=O)Cc3ccc(F)cc3)CC2)c1` [Example 286]: 67.8 nM; for `Cc1onc(-c2c(F)cccc2Cl)c1C(=O)OCCCN1CCC(c2cccc(NC(=O)C(C)C)c2)CC1` [Example 287, 3-{4-[3-(ISOBUTYRYLAMINO)PHENYL]-1-PIPERIDINYL}PROPYL 3-(2-CHLORO-6-FLUOROPHENYL)-5-METHYL-4-ISOXAZOLECARBOXYLATE]: 34.3 nM; for `Cc1onc(-c2c(Cl)cccc2Cl)c1C(=O)OCCCN1CCC(c2cccc(NC(=O)C(C)C)c2)CC1` [Example 288, 3-{4-[3-(ISOBUTYRYLAMINO)PHENYL]-1-PIPERIDINYL}PROPYL 3-(2,6-DICHLOROPHENYL)-5-METHYL-4-ISOXAZOLECARBOXYLATE]: 30.2 nM.
Turning to `Cc1onc(-c2ccccc2Cl)c1C(=O)OCCCN1CCC(c2cccc(NC(=O)C(C)C)c2)CC1` [Example 289, 3-{4-[3-(ISOBUTYRYLAMINO)PHENYL]-1-PIPERIDINYL}PROPYL 3-(2-CHLOROPHENYL)-5-METHYL-4-ISOXAZOLECARBOXYLATE], the Ki is 31.8 nM.
Consider `Cc1onc(-c2c(Cl)cccc2Cl)c1C(=O)O[C@@H](CCN1CCC(c2cccc(NC(=O)C(C)C)c2)CC1)c1ccccc1` [Example 290, (1S)-3-{4-[3-(ISOBUTYRYLAMINO)PHENYL]-1-PIPERIDINYL}-1-PHENYLPROPYL 3-(2,6-DICHLOROPHENYL)-5-METHYL-4-ISOXAZOLECARBOXYLATE], for which the Ki is 51.9 nM.
Regarding `Cc1onc(-c2c(F)cccc2Cl)c1C(=O)OCCCCN1CCC(c2cccc(NC(=O)C(C)C)c2)CC1` [Example 291, 4-{4-[3-(ISOBUTYRYLAMINO)PHENYL]-1-PIPERIDINYL}BUTYL 3-(2-CHLORO-6-FLUOROPHENYL)-5-METHYL-4-ISOXAZOLECARBOXYLATE], the Ki is 24.3 nM.
The value for `Cc1onc(-c2ccccc2Cl)c1C(=O)OCCCCN1CCC(c2cccc(NC(=O)C(C)C)c2)CC1` [Example 292, 4-{4-[3-(ISOBUTYRYLAMINO)PHENYL]-1-PIPERIDINYL}BUTYL 3-(2-CHLOROPHENYL)-5-METHYL-4-ISOXAZOLECARBOXYLATE] was 18.4 nM.
Turning to `Cc1onc(-c2ccccc2)c1C(=O)OCCCN1CCC(c2cccc(NC(=O)C(C)C)c2)CC1` [Example 293, 3-{4-[3-(ISOBUTYRYLAMINO)PHENYL]-1-PIPERIDINYL}PROPYL 5-METHYL-3-PHENYL-4-ISOXAZOLECARBOXYLATE], the Ki was 39.9 nM.
As for `Cc1onc(-c2c(Cl)cccc2Cl)c1C(=O)OCCCCN1CCC(c2cccc(NC(=O)C(C)C)c2)CC1` [Example 294, 4-{4-[3-(ISOBUTYRYLAMINO)PHENYL]-1-PIPERIDINYL}BUTYL 3-(2,6-DICHLOROPHENYL)-5-METHYL-4-ISOXAZOLECARBOXYLATE], the Ki is 15.8 nM.
For `Cc1onc(-c2c(F)cccc2Cl)c1C(=O)OC(CCCN1CCC(c2cccc(NC(=O)C(C)C)c2)CC1)c1ccccc1` (centres unmarked) [Example 295, 4-{4-[3-(ISOBUTYRYLAMINO)PHENYL]-1-PIPERIDINYL}-1-PHENYLBUTYL 3-(2-CHLORO-6-FLUOROPHENYL)-5-METHYL-4-ISOXAZOLECARBOXYLATE], the inhibition constant (Ki) came to 8.7 nM.
For the compound `Cc1onc(-c2ccccc2)c1C(=O)OCCCCN1CCC(c2cccc(NC(=O)C(C)C)c2)CC1` [Example 296, 4-{4-[3-(ISOBUTYRYLAMINO)PHENYL]-1-PIPERIDINYL}BUTYL 5-METHYL-3-PHENYL-4-ISOXAZOLECARBOXYLATE], the Ki is 20 nM.
The same measure for `Cc1onc(-c2c(Cl)cccc2Cl)c1C(=O)OCCCCCCN1CCC(c2cccc(NC(=O)C(C)C)c2)CC1` [Example 297, 6-{4-[3-(ISOBUTYRYLAMINO)PHENYL]-1-PIPERIDINYL}HEXYL 3-(2,6-DICHLOROPHENYL)-5-METHYL-4-ISOXAZOLECARBOXYLATE]: 11.9 nM; for `Cc1onc(-c2ccccc2)c1C(=O)OCCCCCCN1CCC(c2cccc(NC(=O)C(C)C)c2)CC1` [Example 298, 6-{4-[3-(ISOBUTYRYLAMINO)PHENYL]-1-PIPERIDINYL}HEXYL 5-METHYL-3-PHENYL-4-ISOXAZOLECARBOXYLATE]: 40.1 nM.
In the case of `CC(C)C(=O)Nc1cccc(C2CCN(CCCCOC(=O)Cc3ccc(F)cc3)CC2)c1` [Example 299], the Ki turned out to be 37.5 nM.
The value for `Cc1onc(-c2ccccc2Cl)c1C(=O)OC(CCCN1CCC(c2cccc(NC(=O)C(C)C)c2)CC1)c1ccccc1` (centres unmarked) [Example 300, 4-{4-[3-(ISOBUTYRYLAMINO)PHENYL]-1-PIPERIDINYL}-1-PHENYLBUTYL 3-(2-CHLOROPHENYL)-5-METHYL-4-ISOXAZOLECARBOXYLATE] was 7.6 nM.
Turning to `CC(C)C(=O)Nc1cccc(C2CCN(CC[C@H](NC(=O)C(c3ccccc3)c3ccccc3)c3ccccc3)CC2)c1` [Example 304], the Ki worked out at 4 nM.
`CC(C)C(=O)Nc1cccc(C2CCN(CC[C@H](NC(=O)c3cccc(Cl)c3)c3ccccc3)CC2)c1` [Example 305]: the Ki was 177 nM.
For `CC(C)C(=O)Nc1cccc(C2CCN(CC[C@H](NC(=O)c3cc(Cl)cc(Cl)c3)c3ccccc3)CC2)c1` [Example 306], the inhibitory constant (Ki) worked out at 168 nM.
The value for `CCSc1ncccc1C(=O)N[C@@H](CCN1CCC(c2cccc(NC(=O)C(C)C)c2)CC1)c1ccccc1` [Example 307] was 97.4 nM; that for `CC(C)C(=O)Nc1cccc(C2CCN(CC[C@H](NC(=O)c3ccc(-c4ccccc4)cc3)c3ccccc3)CC2)c1` [Example 308] was 402 nM.
